Series [1] concerns P.mirabilis MB4955. Kind of series: In vitro antibacterial activity, agar plate dilution method (MIC). Conditions: Proteus mirabilis, MH agar, inoculum 10^6CFU/ml, 37 °C, 16 hours, read-out: Minimum inhibitory Concentration (MIC). The format is cell-based. The method, then:
(§1) One platinum loopful (inoculum : 10^6CFU/ml) of each test microorganism cultured overnight in Mueller Hinton broth was inoculated into Mueller Hinton agars (MH agar). These media contained an antimicrobial agent in various concentrations. Each test microorganism was cultured at 37 °C for 16 hours, and then the minimum inhibitory concentration (MIC: µg/ml) was assayed. Accordingly, the minimum inhibitory concentrations of compounds of the invention were assayed.

The test system of series [2] is S.aureus BB5939. Described as above. Conditions: Staphylococcus aureus; S.aureus BB5939 (β-lactamase-producing bacterium); MH agar, inoculum 10^6CFU/ml, 37 °C, 16 hours; read-out: Minimum inhibitory Concentration (MIC). It is filed as cell-based. The procedure:
as §1

Series [3] concerns S.aureus JS1. Described as above. It is filed as cell-based. Conditions: Staphylococcus aureus, MH agar, inoculum 10^6CFU/ml, 37 °C, 16 hours, read-out: Minimum inhibitory Concentration (MIC). The method, then:
as §1

Series [4] deals with S.aureus MB4970. Described as above. The format is cell-based. Conditions: Staphylococcus aureus, MH agar, inoculum 10^6CFU/ml, 37 °C, 16 hours, read-out: Minimum inhibitory Concentration (MIC). The procedure: as §1
In series [5] the test system is ICR male mice. The series can be described thus: Acute toxicity in mice. It is filed as in vivo. Conditions: once into the tail vein, observed 5 days. The procedure:
The compound of Example I-26 was used as a representative compound. The test compound was diluted with distilled water for injection so that the drug liquid concentration became 60.75 mg/ml, and administered once, in an administration rate of 10 to 20 µl/min, into the tail vein of each of 4-week-old ICR male mice, according to "Commentary on GLP Standard and Toxicity Test Method Guidline" (supervised by the Examination Section, Drug Secretariat, the Ministry of Welfare; Yakuji-Nippo Co.). The state of death and the general symptoms of mobility were observed over a period of 5 days after the administration.

The test system of series [6] is SD rats. The series can be described thus: Toxicity test on the central nervous system in rats. Conditions: 200 µg/rat into the lateral ventricle, n=5, observed for 30 minutes.
Description: A chronic guide cannula was inserted into the right lateral ventricle of each of 7-week-old male SD rats (n=5), and fixed by a dental range.
Series [7] deals with S.aureus CSa929. The series can be described thus: Agar plate dilution method (MIC), media supplemented with 2 % sodium chloride. Conditions: Staphylococcus aureus, 35 °C, 48 hours, read-out: Minimum inhibitory Concentration (MIC). It is filed as cell-based. The method, then:
(§2) One platinum loopful (inoculum : 10^6CFU/ml) of each test microorganism cultured overnight in Mueller Hinton broth was inoculated into Mueller Hinton agars (MH agar). These media contained an antimicrobial agent in various concentrations. […] Accordingly, the minimum inhibitory concentrations of compounds of the invention were assayed. Table 1 The minimum inhibitory concentrations (MIC: µg/ml) of compounds of the invention were assayed according to the above agar plate dilution method using the media supplemented with 2 % sodium chloride as test media and using the culture conditions of 35 °C and 48 hours.

In series [8] the test system is S.aureus MB5393. Described as above. The format is cell-based. Conditions: Staphylococcus aureus, 35 °C, 48 hours, read-out: Minimum inhibitory Concentration (MIC). The procedure:
as §2

Series [9] has as its system white rabbits. Kind of series: Renal toxicity test using white rabbits. The format is in vivo. Conditions: for Blood urea nitrogen before administration / Creatinine before administration: just before the administration (baseline). The procedure: The compound of Example I-72 was made into a liquid with sterilized distilled water for injection so that the drug liquid concentration became 10 %, and intraperitoneally administered once in a dose of 225 mg/kg into 18-week-old male white rabbits from Japan (n=3 per each group). As for a control group, 0.9 % physiological saline was intraperitoneally administered once in the same manner as above. Serum urea nitrogen and creatinine were assayed just before the administration and about 48 hours after the administration. After the blood drawing, each rabbit was killed with leaving them alone under anesthetization and roughly observed, and then autopsy was carried out only on the kidney fixed with neutral 10 % formalin buffer. Each kidney preparation was prepared by a usual method, stained with hematoxylin and eosin and observed by a microscope.

Where [10] appears, read: Mean, n=3, about 48 hours after 225 mg/kg intraperitoneally once.
Setting [11] is: individual rabbit, about 48 hours after 225 mg/kg intraperitoneally once.
The mark [12] stands for this setting: individual rabbit, 225 mg/kg intraperitoneally once, 225 mg/kg.

≈ marks a conversion by molar mass, not a printed value. Where “and” joins values, the source holds several entries; their conditions need not be identical. Equal values may be shown once.

Take `C[C@@H](O)[C@H]1C(=O)N2C(C(=O)O)=C(SC(=S)N3CCCC(O)CC3)[C@H](C)[C@H]12` (stereo partly drawn) [Example I-26]: the MIC was 0.05 µg/mL (≈ 0.125 µM) in [1], 0.78 µg/mL (≈ 1.95 µM) in series [2], 0.2 µg/mL (≈ 0.499 µM) in series [3] and 0.012 µg/mL (≈ 0.03 µM) in [4]. The “General symptoms of mobility” value in [5] (1000 mg/kg), in series [5] (1500 mg/kg) and in series [5] (2000 mg/kg) was “No abnomality” in each case. Besides, the Surviving number is listed as 2/2 in series [5] (1000 mg/kg), 2/2 in series [5] (1500 mg/kg) and 1/1 in series [5] (2000 mg/kg). The Case of death in series [6] is 0/5.

Regarding `CNCC(=O)N1CCN(C(=S)SC2=C(C(=O)O)N3C(=O)[C@H]([C@@H](C)O)[C@H]3[C@H]2C)CC1` [Example I-41], the MIC is 0.1 µg/mL (≈ 0.226 µM) in series [1], 0.39 µg/mL (≈ 0.881 µM) in series [2], 0.1 µg/mL (≈ 0.226 µM) in series [3] and at most 0.006 µg/mL in [4].

As to `C[C@@H](O)[C@H]1C(=O)N2C(C(=O)O)=C(SC(=S)N3CCc4ccccc43)[C@H](C)[C@H]12` [Example I-51], the MIC in series [7] and in series [8] was 0.39 µg/mL (≈ 0.964 µM) throughout.

As to `C[C@@H](O)[C@H]1C(=O)N2C(C(=O)O)=C(SC(=S)N(C)C)[C@H](C)[C@H]12` [Example I-63], the MIC worked out at 0.1 µg/mL (≈ 0.303 µM) in series [1], 1.56 µg/mL (≈ 4.72 µM) in series [2], 0.2 µg/mL (≈ 0.605 µM) in [3] and 25 µg/mL (≈ 75.7 µM) in series [4].

Take `C[C@@H](O)[C@H]1C(=O)N2C(C(=O)O)=C(SC(=S)N(C)CCO)[C@H](C)[C@H]12` [Example I-72]: the MIC is 0.05 µg/mL (≈ 0.139 µM) in [1], 1.56 µg/mL (≈ 4.33 µM) in series [2], 0.1 µg/mL (≈ 0.277 µM) in series [3] and 0.025 µg/mL (≈ 0.0694 µM) in [4]. For the same compound, the “Blood urea nitrogen after administration” value in series [9] (setting [10]) was 18.1 mg/dL; in [9] (setting [11]), 16.8 mg/dL and 16.6 mg/dL and 20.8 mg/dL. The Creatinine after administration in [9] (setting [10]) is 1.4 mg/dL; in series [9] (setting [11]) it was 1.3 mg/dl (2×) and 1.5 mg/dl. Besides, the “Blood urea nitrogen before administration” value in series [9] (Mean, n=3) is 17.4 mg/dL; in [9] (setting [12]) it was 15.8 mg/dL and 16.8 mg/dL and 19.6 mg/dL. The Creatinine before administration in series [9] (Mean, n=3) was 1.3 mg/dL; in series [9] (setting [12]) it was 1.2 mg/dL and 1.3 mg/dL and 1.4 mg/dL. Further, the “Opinion based on the autopsy” value in [9] (individual rabbit, kidney, about 48 hours after 225 mg/kg intraperitoneally once) is recorded as “no abnormality”.

Turning to `C[C@@H](O)[C@H]1C(=O)N2C(C(=O)O)=C(SC(=S)N3Cc4ccc(C[N+]56CC[N+](CC(N)=O)(CC5)CC6)cc4C3)[C@H](C)[C@H]12` [Example III-2], the MIC was 0.2 µg/mL in series [1], 0.39 µg/mL in series [2], 0.1 µg/mL in series [3] and at most 0.006 µg/mL in series [4].

For `C[C@@H](O)[C@H]1C(=O)N2C(C(=O)O)=C(SC(=S)N3CC=C(CN)CC3)[C@H](C)[C@H]12` [Example IV-5], the MIC is 0.05 µg/mL (≈ 0.126 µM) in [1], 0.39 µg/mL (≈ 0.981 µM) in series [2], 0.1 µg/mL (≈ 0.252 µM) in series [3] and at most 0.006 µg/mL in [4].

The values above are taken from patent EP0781773A1, “NOVEL CARBAPENEM DERIVATIVE” (BANYU PHARMACEUTICAL CO., LTD., priority 1994, dated 1996).
